According to patent US5578643A, “Protective prostaglandins for use in conjunction with chemotherapeutic agents” (Loyola University of Chicago, priority 1994, dated 1996):

Tests used:
[1] = tested on: mice given doxorubicin (DOX); assay: Survival of mice (percent survival over 15 days) after doxorubicin, with or without prior prostaglandin; details: n=16
Description: FIG. 1 is a graph illustrating percent survival of mice over 15 days as a function of the time interval (in hours) between the administration of misoprostol and the subsequent administration of doxorubicin. (The two curves represent duplicate experiments; 12 animals per experiment.)
FIG. 2 is a graph illustrating the percent survival of mice over 15 days following the administration of 0.5 mg of doxorubicin (open circles) and mice given 40 μg of misoprostol 2 hours before administration of 0.5 mg of doxorubicin (filled circles). (N=16 for each group).
FIG. 3 is a graph illustrating the percent survival of mice over 15 days following the administration of 0.75 mg of doxorubicin (open circles) and mice given 40 μg of misoprostol 2 hours before administration of 0.75 mg of doxorubicin (filled circles). (N=16 for each group).
Mortality of mice is a measure of PG-induced protection from death due to severe normal tissue injury inflicted by chemotherapy agents.
This assay was accomplished by injecting intraperitoneally (IP) separate groups of mice with a range of doses of chemotherapeutic agents. […] In some groups of mice, longevity was recorded by plotting the number of animals remaining alive (percent survival) versus time following the administration of the chemotherapeutic agent.
PG-induced protection from the toxic chemotherapeutic agents was measured by subcutaneous (SC) injection of the PG at various times prior to or after the IP administration of the chemotherapeutic agent. […] The time interval was varied from 15 minutes to 5 hours. The two curves represent two separate experiments with 20 mice in each experiment. The "0" time point is the percentage of mice that survived 15 days after administration of doxorubicin alone.

[2] = tested on: mice given 5-fluorouracil; assay: Survival of mice after 12.5 mg of 5-fluorouracil, with or without prior misoprostol; format: in vivo; details: 40 μg misoprostol 2 hours before 12.5 mg of 5-fluorouracil; FIG. 4
Description: The toxicity of 12.5 mg of 5-fluorouracil alone to mice and the effectiveness of 40 μg of misoprostol given 2 hours prior to administration of 5-fluorouracil to protect from death due to 5-fluorouracil is shown in FIG. 4.

[3] = tested on: hair medullary cells; assay: Number of hair medullary cells four days after a single dose of chemotherapeutic agent, with or without misoprostol; format: in vivo, CF1 mice
Description: FIG. 13 is a representation of photographs of shafts of hair showing a single line of medullary cells in control mice (Panel A) and in mice 4 days after they were given a single dose of 0.3 mg of VP-16-213 (Panel B).
Number of Hair Medullary Cells as a Measure of Protection from Injury caused by Chemotherapeutic Agents.
The shafts of hair in CF1 mice contain usually a single line of about 50±1 medullary cells. These cells are very sensitive to cytotoxic agents (see Potten, C. S., Geng, L., and Taylor, P., Hair Medullary Cell Counts: a Simple and Sensitive Indicator of Radiation Exposure. Int. J Radiat. Biol., 57:13-21, 1990). Single doses of cytotoxic chemotherapeutic agents greatly reduce the number of medullary cells which reach a nadir at 4 days after administration of the agent. This cell system has been used for the evaluation of misoprostol-induced protection from several chemotherapeutic agents.
CF1 mice had hair from an area of their rump plucked to induce anagen growth as described in Example 2 above. […] In separate groups, mice received misoprostol (40 μg/average 30 g mouse) either subcutaneously or applied topically 2 hours before each of the chemotherapeutic agents listed above. Untreated controls were used since it has been previously determined that water, or 2% EtOH in water, or phosphate buffer at pH=6.8 (the vehicles for the all agents used) had no influence on the cell counts compared to untreated controls. Twenty-five hairs from each animal of each group were dissected from Feulgen stained samples taken from the mice 4 days after treatment.
The number of medullary cells was averaged (n=4) for each treatment group and the results for all chemotherapeutic agents tested to date are presented in Table I.

[4] = tested on: mice given graded doses of doxorubicin (DOX); assay: DOX dose response: dose killing 50% of the mice within 15 days, alone or after PG or WR-2721; format: in vivo; details: 40 μg misoprostol SC 2 hours before graded doses of DOX; death within 15 days; FIG. 5
Description: The open triangle is data of a group of 10 mice given WR-2721, 30 minutes before administration of 0.75 mg of doxorubicin. (The lines are computer fit spline curves through the data; n=24 per data point on each curve).
(The lines are computer fit spline curves through the data; n=8 per data point for each of the PG-treated groups and n=24 for the data points of mice treated only with doxorubicin).
It was observed that all acute deaths due to DOX treatment alone occurred before day 15 following DOX administration. Subsequently, the parameter of death within 15 days was used to investigate the DOX dose response administered IP alone or 2 hours after 40 μg of misoprostol was given subcutaneously (sc). In this study, a dose of about 0.5 mg of DOX/average 30 gram mouse, killed 50% of the DOX treated mice (see FIG. 5).
A comparison of PG-induced protection was made to that of protection by WR-2721; an agent reported to protect from some chemotherapeutic agents. […] Two other PGs representing different structural prostaglandins than misoprostol were also investigated for their effectiveness in protecting mice from mortality resulting from administration of graded doses of DOX.

[5] = tested on: white blood cells (WBCs) in the peripheral circulation; assay: WBC counts and differential counts in peripheral blood of DOX treated mice; format: in vivo
Description: FIG. 7 is a graph illustrating the protective effect of misoprostol (given 2 hours before doxorubicin) on WBC counts compared to the effect of doxorubicin alone on WBC counts as function of time (in days). (The numbers 1 and 2 are duplicate studies.)
Death within 15 days of DOX treatment alone is most likely associated with bone marrow injury. […] DOX, therefore, appears to not only reduce the total WBC, but has a particularly marked effect on lymphocytes.

[6] = tested on: hair follicles; assay: Hair count / hair loss (alopecia) caused by chemotherapeutic agents, 5 daily treatments; format: in vivo, mice; details: 5 days
Description: Panel C is a representation of a photomicrograph of an animal given 40 μg of misoprostol, 2 hours before the 0.1 mg daily dose of doxorubicin given each day for 5 days.
(Data are the means of 6 mice (2 fields/mouse)±1 SEM.)
Amount of Hair Loss as a Measure of PG-induced Protection from Alopecia caused by Chemotherapeutic Agents.
One of the side effects of chemotherapy in cancer patients is hair loss or alopecia. Studies were conducted to measure a possible protective effect of PGs from alopecia caused by chemotherapeutic agents. […] The hairs on the rumps of mice (n=4/group) were plucked to induce a growth or anagen cycle within hair follicles which continues for about 18 days. […] Control groups (n=4) received no treatment or misoprostol alone.

CCCCC(C)(O)C/C=C/[C@H]1[C@H](O)CC(=O)[C@@H]1CCCCCCC(=O)OC (mixture of isomers) [misoprostol, (±)(16RS)-15-deoxy-16-hydroxy-16-methyl prostaglandin E1, methyl ester]
percent still alive by day 15, misoprostol before DOX ([1]; 40 μg misoprostol 2 hours before 0.75 mg of DOX, FIG. 3): about 85%
percent survival after 15 days, misoprostol before DOX ([1]; 40 μg misoprostol SC 2 hours before 0.5 mg of doxorubicin, FIG. 2): 100%
protection of mice from death due to 5-fluorouracil [2]: effective in protecting mice from damaging effects of 5-fluorouracil
Number of Medullar Cells ± 1 SEM, misoprostol subcutaneously ([3]; 40 μg SC 2 hrs before 5 FU (1.0 mg)): 37.4 ± 5.0
Number of Medullar Cells ± 1 SEM, misoprostol subcutaneously ([3]; 40 μg SC 2 hrs before ARA-C (8 mg)): 40.1 ± 0.7
Number of Medullar Cells ± 1 SEM, misoprostol subcutaneously ([3]; 40 μg SC 2 hrs before Bleomycin (0.05 mg)): 27.9 ± 1.2
Number of Medullar Cells ± 1 SEM, misoprostol subcutaneously ([3]; 40 μg SC 2 hrs before CTX (1 mg)): 33.1 ± 1.3
Number of Medullar Cells ± 1 SEM, misoprostol subcutaneously ([3]; 40 μg SC 2 hrs before Carboplatin (1.0 mg)): 31.2 ± 2.4
Number of Medullar Cells ± 1 SEM, misoprostol subcutaneously ([3]; 40 μg SC 2 hrs before Cisplatin (0.25 mg)): 14.3 ± 0.4
Number of Medullar Cells ± 1 SEM, misoprostol subcutaneously ([3]; 40 μg SC 2 hrs before DOX (0.3 mg)): 30.0 ± 1.1
Number of Medullar Cells ± 1 SEM, misoprostol subcutaneously ([3]; 40 μg SC 2 hrs before HU (10 mg)): 38.9 ± 0.7
Number of Medullar Cells ± 1 SEM, misoprostol subcutaneously ([3]; 40 μg SC 2 hrs before Methotrexate (0.2 mg)): 50.6 ± 0.6
Number of Medullar Cells ± 1 SEM, misoprostol subcutaneously ([3]; 40 μg SC 2 hrs before Mitomycin C (0.01 mg)): 38.2 ± 1.9
Number of Medullar Cells ± 1 SEM, misoprostol subcutaneously ([3]; 40 μg SC 2 hrs before Taxol (0.6 mg)): 26.0 ± 3.5
Number of Medullar Cells ± 1 SEM, misoprostol subcutaneously ([3]; 40 μg SC 2 hrs before VP-16-213 (0.3 mg)): 34.4 ± 1.1
Number of Medullar Cells ± 1 SEM, misoprostol topical ([3]; 40 μg topical 2 hrs before ARA-C (8 mg)): 43.1 ± 1.7
Number of Medullar Cells ± 1 SEM, misoprostol topical ([3]; 40 μg topical 2 hrs before Bleomycin (0.05 mg)): 28.1 ± 1.0
Number of Medullar Cells ± 1 SEM, misoprostol topical ([3]; 40 μg topical 2 hrs before CTX (1 mg)): 31.5 ± 2.2
Number of Medullar Cells ± 1 SEM, misoprostol topical ([3]; 40 μg topical 2 hrs before DOX (0.3 mg)): 27.0 ± 1.3
Number of Medullar Cells ± 1 SEM, misoprostol topical ([3]; 40 μg topical 2 hrs before HU (10 mg)): 40.7 ± 1.0
Number of Medullar Cells ± 1 SEM, misoprostol topical ([3]; 40 μg topical 2 hrs before Methotrexate (0.2 mg)): 46.7 ± 2.2
Number of Medullar Cells ± 1 SEM, misoprostol topical ([3]; 40 μg topical 2 hrs before VP-16-213 (0.3 mg)): 33.0 ± 1.6
lack of protection of medullary cells ([3]; ARA-C, bleomycin, HU (misoprostol given systemically), cisplatin, carboplatin or 5-FU treated mice): did not protect medullary cells
DOX dose required to kill 50% of the population of mice, after misoprostol [4]: about 1.0 mg of DOX/average 30 gram mouse
percentage of lymphocytes, misoprostol before DOX ([5]; 40 μg of misoprostol 2 hours before 0.5 mg of DOX, differential counts of peripheral blood): greater than 30%
WBC counts, misoprostol before DOX ([5]; misoprostol 40 μg/30 gram mouse 2 hours before DOX (0.5 mg/30 gram mouse), FIG. 7): remained near control levels
number of hairs, misoprostol + DOX ([6]; 40 μg misoprostol SC 2 hours before each daily 0.1 mg DOX, FIG. 9): 213±7.8 hairs per 4.42 sq. mm
number of hairs, misoprostol + CTX ([6]; 40 μg misoprostol SC 2 hours before each daily 1.0 mg cytoxan, FIG. 10): 222+5.5 hairs per 4.42 sq. mm
